From patent US20220347093A1, “PHARMACEUTICAL COMPOSITION” (University of Fukui, priority 2019, published 2022)

Key:
[1] = tested on: nasal polyps specimen surgically obtained from a patient with eosinophilic sinusitis; assay: Ex vivo incubation of nasal polyps specimens, weight change before/after about 24 h; set-up: species or system human; details: 37° C.; for (A) − (B) (mg), nasal polyps weight decrease / After incubation (mg) (B), nasal polyps specimen weight: single case; for nasal polyps weight change before and after incubation (paired t-test): 6 cases
Method: (§1) A heparinoid (organic sulfate group 25.8 to 37.3% w/w, D-glucuronic acid 19.0 to 24.0% w/w, Maruho Co., Ltd.) dried under reduced pressure was dissolved in saline to prepare heparinoid solutions (0.3, 30 and 3,000 μg/mL). A nasal polyps specimen was surgically obtained from a patient with eosinophilic sinusitis, cut into pieces of about 5 mm squares, wiped off the moisture and measured the weight. Each specimen was transferred to a 12-well plate. The specimen in the plate was incubated with 1 mL of saline or heparinoid solutions at 37° C. for about 24 hours. Then, after wiping off the moisture in the incubated specimen taken from the plate, the weight of the specimen was measured. The difference between specimen weights before and after incubation was used as an index of a nasal polyps reduction effect. The saline group and heparinoid solution groups (different in concentration) of FIG. 1 each consisted of 6 cases.
The reduction effects of heparinoid solutions (0.003, 0.03, 0.3 and 30 μg/mL) on nasal polyps were evaluated in the same method as in Example 1. The saline group and heparinoid solution groups (different in concentration) of FIG. 2 each consisted of 6 cases.
A PPS solution (0.003 μg/mL) was prepared and the reduction effect on nasal polyps was evaluated in the same method as in Example 1. PPS used herein was sodium pentosan polysulfate (weight average molecular weight 4,000 to 6,500, sulfur content 13.0 to 20.0% w/w, glucuronic acid content 2.5 to 4.0% w/w) manufactured by Molclone Labs. The saline group and PPS solution group of FIG. 3 each consisted of 6 cases.
The following 11 types of polysaccharide solutions (polysaccharides except glucomannan: 300 μg/mL; glucomannan 30 μg/mL) were prepared and the reduction effect on nasal polyps was evaluated in the same method as in Example 1. The saline groups and polysaccharide solution groups (different in concentration) of Tables 1 to 4 each consisted of a single case. • Chondroitin (chondroitin sodium, weight average molecular weight 42,351, sulfate group content 2.6%, manufactured by Maruho Co., Ltd.) • Low-molecular chondroitin sulfate (low-molecular sodium chondroitin sulfate, weight average molecular weight 11,500, sulfate group content 8.9%, manufactured by Maruho Co., Ltd.) • Chondroitin sulfate A (sodium chondroitin sulfate A, manufactured by PG Research) • Dermatan sulfate (sodium dermatan sulfate, manufactured by Tokyo Chemical Industry Co., Ltd.) • Chondroitin sulfate C (sodium chondroitin sulfate C, manufactured by PG Research) • Glucomannan (Propol A, manufactured by Shimizu Chemical Corporation) • Dextran sulfate (sodium dextran sulfate 500,000, manufactured by FUJIFILM Wako Pure Chemical Corporation) • Keratan sulfate (sodium keratan sulfate, manufactured by PG Research) • Inulin (manufactured by Tokyo Chemical Industry Co., Ltd.) • Heparan sulfate (manufactured by Toronto Research Chemicals, Inc.) • Xylo-oligosaccharide (xylo-hexaose, manufactured by Megazyme)

[2] = tested on: nasal polyps specimen surgically obtained from a patient with non-eosinophilic sinusitis; assay: as above; set-up: species or system human; details: single case; for (A) − (B) (mg), nasal polyps weight decrease / After incubation (mg) (B), nasal polyps specimen weight: 37° C., about 24 hours; for nasal polyps weight change before and after incubation, in words: 0.03, 0.3, 30 and 300 μg/mL, individually
Method: as §1
In the same method as in Example 1, heparinoid solutions and PPS solutions (0.03, 0.3, 30 and 300 μg/mL, respectively) were prepared and the reduction effect on nasal polyps specimen surgically obtained from a patient with non-eosinophilic sinusitis was evaluated. The heparinoid and PPS were also the same as those used in Example 1 and Example 3, respectively. The saline groups, heparinoid solution group and PPS solution groups of Table 5 each consisted of a single case.

[3] = tested on: nasal polyps surgically obtained from patients with eosinophilic sinusitis; details: Non Patent Literature 5; cited from earlier work
[4] = tested on: rat nasal mucosal inflammation models; details: Non Patent Literature 4; cited from earlier work

## Inulin
[1]; 300 μg/mL in saline
  (A) − (B) (mg), nasal polyps weight decrease: 46.1 mg
  After incubation (mg) (B), nasal polyps specimen weight: 85.3 mg

## sodium dermatan sulfate
[1]; 300 μg/mL in saline
  (A) − (B) (mg), nasal polyps weight decrease: 13.1 mg
  After incubation (mg) (B), nasal polyps specimen weight: 118.5 mg

## Heparan sulfate
[1]; 300 μg/mL in saline
  (A) − (B) (mg), nasal polyps weight decrease: 25.5 mg
  After incubation (mg) (B), nasal polyps specimen weight: 103.0 mg

## sodium dextran sulfate 500,000
[1]; 300 μg/mL in saline
  (A) − (B) (mg), nasal polyps weight decrease: 22.0 mg
  After incubation (mg) (B), nasal polyps specimen weight: 120.0 mg

## sodium pentosan polysulfate [PPS]
[1]; 0.003 μg/mL
  nasal polyps weight change before and after incubation (paired t-test): decreased significantly
[2]; 0.03 μg/mL
  (A) − (B) (mg), nasal polyps weight decrease: 19.0 mg
  After incubation (mg) (B), nasal polyps specimen weight: 214.0 mg
[2]; 0.3 μg/mL
  (A) − (B) (mg), nasal polyps weight decrease: 48.0 mg
  After incubation (mg) (B), nasal polyps specimen weight: 225.0 mg
[2]; 30 μg/mL
  (A) − (B) (mg), nasal polyps weight decrease: 13.0 mg
  After incubation (mg) (B), nasal polyps specimen weight: 207.0 mg
[2]; 300 μg/mL
  (A) − (B) (mg), nasal polyps weight decrease: 10.0 mg
  After incubation (mg) (B), nasal polyps specimen weight: 115.0 mg
[2]
  nasal polyps weight change before and after incubation, in words: remarkably decreased

## OC1OC[C@@H](O[C@@H]2OC[C@@H](O[C@@H]3OC[C@@H](O[C@@H]4OC[C@@H](O[C@@H]5OC[C@@H](O[C@@H]6OC[C@@H](O)[C@H](O)[C@H]6O)[C@H](O)[C@H]5O)[C@H](O)[C@H]4O)[C@H](O)[C@H]3O)[C@H](O)[C@H]2O)[C@H](O)[C@H]1O (stereo partly shown) [Xylo-oligosaccharide, xylo-hexaose]
[1]; 300 μg/mL in saline
  (A) − (B) (mg), nasal polyps weight decrease: 17.9 mg
  After incubation (mg) (B), nasal polyps specimen weight: 110.4 mg

## heparin
[3]
  reduction effect on nasal polyps: did not show a reduction effect
[4]
  neutrophil infiltration: significantly suppress
  production of mucus: significantly suppress

## sodium chondroitin sulfate A
[1]; 300 μg/mL in saline
  (A) − (B) (mg), nasal polyps weight decrease: 38.0 mg
  After incubation (mg) (B), nasal polyps specimen weight: 68.0 mg

## low-molecular sodium chondroitin sulfate [Low-molecular chondroitin sulfate]
[1]; 300 μg/mL in saline
  (A) − (B) (mg), nasal polyps weight decrease: 25.0 mg
  After incubation (mg) (B), nasal polyps specimen weight: 116.0 mg

## sodium chondroitin sulfate C
[1]; 300 μg/mL in saline
  (A) − (B) (mg), nasal polyps weight decrease: 44.0 mg
  After incubation (mg) (B), nasal polyps specimen weight: 80.0 mg

## sodium keratan sulfate
[1]; 300 μg/mL in saline
  (A) − (B) (mg), nasal polyps weight decrease: 18.3 mg
  After incubation (mg) (B), nasal polyps specimen weight: 147.3 mg

## Glucomannan
[1]; 30 μg/mL in saline
  (A) − (B) (mg), nasal polyps weight decrease: 19.0 mg
  After incubation (mg) (B), nasal polyps specimen weight: 81.0 mg

## heparinoid
[1]; 0.003 μg/mL
  nasal polyps weight change before and after incubation (paired t-test): decreased significantly
[1]; 0.03 μg/mL
  nasal polyps weight change before and after incubation (paired t-test): decreased significantly
[1]; 0.3 μg/mL
  nasal polyps weight change before and after incubation (paired t-test): decreased significantly
[1]; 30 μg/mL
  nasal polyps weight change before and after incubation (paired t-test): decreased significantly
[1]; 3,000 μg/mL
  nasal polyps weight change before and after incubation (paired t-test): decreased significantly
[2]; 0.03 μg/mL
  (A) − (B) (mg), nasal polyps weight decrease: 35.0 mg
  After incubation (mg) (B), nasal polyps specimen weight: 276.0 mg
[2]; 0.3 μg/mL
  (A) − (B) (mg), nasal polyps weight decrease: 28.0 mg
  After incubation (mg) (B), nasal polyps specimen weight: 181.0 mg
[2]; 30 μg/mL
  (A) − (B) (mg), nasal polyps weight decrease: 66.0 mg
  After incubation (mg) (B), nasal polyps specimen weight: 169.0 mg
[2]; 300 μg/mL
  (A) − (B) (mg), nasal polyps weight decrease: 30.0 mg
  After incubation (mg) (B), nasal polyps specimen weight: 246.0 mg
[2]
  nasal polyps weight change before and after incubation, in words: remarkably decreased

## chondroitin sodium
[1]; 300 μg/mL in saline
  (A) − (B) (mg), nasal polyps weight decrease: 32.8 mg
  After incubation (mg) (B), nasal polyps specimen weight: 122.0 mg
